Measurements: the supplement of paper PMC10307832

Tests used:
Assay in all cases: relative viability (nuclei count vs DMSO), 5 days (fraction); higher = more cells survive
PAC-1 + Alpelisib = compound: C=CCc1cccc(/C=N/NC(=O)CN2CCN(Cc3ccccc3)CC2)c1O [PAC-1] + Cc1nc(NC(=O)N2CCC[C@H]2C(N)=O)sc1-c1ccnc(C(C)(C)C(F)(F)F)c1 [Alpelisib] (partner 2 µM)
How it was run: (§1)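 Lung cancer cell lines in 1536-well plates got either a single drug or a fixed anchor-drug dose together with five library-drug doses (not always all listed) in √10 steps, by pin tool, on the day after seeding. Nuclei were counted after 5 days, and relative viability is the treated-to-vehicle ratio of nuclei counts. Values are medians of duplicate plates.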

Ibrutinib + Pemetrexed = compound: C=CC(=O)N1CCC[C@@H](n2nc(-c3ccc(Oc4ccccc4)cc3)c3c(N)ncnc32)C1 [Ibrutinib] + Nc1nc2[nH]cc(CCc3ccc(C(=O)N[C@@H](CCC(=O)O)C(=O)O)cc3)c2c(=O)[nH]1 [Pemetrexed] (partner 0.2 µM)
How it was run: as §1

PAC-1 + Decitabine = compound: C=CCc1cccc(/C=N/NC(=O)CN2CCN(Cc3ccccc3)CC2)c1O [PAC-1] + Nc1ncn([C@H]2C[C@H](O)[C@@H](CO)O2)c(=O)n1 [Decitabine] (partner 2 µM)
How it was run: as §1

PAC-1 + AZD7762 = compound: C=CCc1cccc(/C=N/NC(=O)CN2CCN(Cc3ccccc3)CC2)c1O [PAC-1] + NC(=O)Nc1cc(-c2cccc(F)c2)sc1C(=O)N[C@H]1CCCNC1 [AZD7762] (partner 0.2 µM)
How it was run: as §1

Cell Line | relative viability (PAC-1 + Alpelisib; first compound 0.02 µM) | relative viability (PAC-1 + Alpelisib; first compound 0.06325 µM) | relative viability (PAC-1 + Alpelisib; first compound 0.2 µM) | relative viability (PAC-1 + Alpelisib; first compound 2 µM) | relative viability (Ibrutinib + Pemetrexed; first compound 0.005 µM) | relative viability (Ibrutinib + Pemetrexed; first compound 0.01581 µM) | relative viability (Ibrutinib + Pemetrexed; first compound 0.05 µM) | relative viability (Ibrutinib + Pemetrexed; first compound 0.1581 µM) | relative viability (Ibrutinib + Pemetrexed; first compound 0.5 µM) | relative viability (PAC-1 + Decitabine; first compound 0.02 µM) | relative viability (PAC-1 + Decitabine; first compound 0.06325 µM) | relative viability (PAC-1 + Decitabine; first compound 0.2 µM) | relative viability (PAC-1 + Decitabine; first compound 2 µM) | relative viability (PAC-1 + AZD7762; first compound 0.02 µM) | relative viability (PAC-1 + AZD7762; first compound 0.06325 µM) | relative viability (PAC-1 + AZD7762; first compound 0.2 µM) | relative viability (PAC-1 + AZD7762; first compound 2 µM)
IA-LM | 0.955 | 0.613 | 0.619 | 0.832 | – | – | – | – | – | – | – | – | – | – | – | – | –
LC-2-ad | 0.942 | 0.845 | 0.791 | 0.887 | 0.279 | 0.272 | 0.274 | 0.258 | 0.293 | 0.827 | 0.75 | 0.779 | 0.672 | 0.76 | 0.868 | 0.859 | 0.902
LCLC-97TM1 | – | 0.215 | 0.281 | 0.192 | 0.234 | 0.208 | 0.22 | 0.232 | 0.249 | 0.229 | 0.215 | – | 0.261 | 0.211 | 0.267 | 0.23 | 0.345
LCLC-103H | 0.861 | 0.864 | 1.05 | 0.928 | 0.43 | 0.467 | 0.467 | 0.464 | 0.544 | 0.725 | 0.784 | 0.71 | 0.736 | 0.833 | 0.764 | 0.713 | 0.757
LK-2 | 1.08 | 1.22 | 1.2 | 0.971 | 0.194 | 0.328 | 0.263 | 0.225 | 0.26 | 0.328 | 0.284 | 0.264 | 0.335 | 0.488 | 0.315 | 0.327 | 0.416
LOU-NH91 | 0.706 | 0.739 | 0.692 | 0.738 | 0.426 | 0.404 | 0.449 | 0.377 | 0.543 | 0.813 | 0.813 | 0.811 | 0.796 | 0.742 | 0.761 | 0.768 | 0.71
LU99A | 0.528 | 0.508 | 0.495 | 0.472 | 0.217 | 0.211 | 0.205 | 0.206 | 0.412 | 0.826 | 0.773 | 0.801 | 0.881 | 0.465 | 0.392 | 0.264 | 0.179
LXF-289 | 1.1 | 1.02 | 1.06 | 1.01 | 0.936 | 0.927 | 0.915 | 0.81 | 1.01 | 0.405 | 0.39 | 0.388 | 0.377 | 1.09 | 1.11 | 0.987 | 1.08
NCI-H520 | 0.704 | 0.979 | 0.927 | 0.925 | 0.67 | 0.769 | 0.666 | 0.718 | 0.724 | 0.465 | 0.513 | 0.328 | 0.548 | – | – | – | –
NCI-H522 | – | – | – | – | 1.12 | 0.789 | 0.795 | 0.925 | 0.956 | 0.607 | 0.641 | 0.614 | 0.697 | 0.886 | 0.69 | 0.799 | 0.891
NCI-H661 | 0.581 | 0.56 | 0.671 | 0.687 | 0.868 | 0.927 | 0.89 | 0.902 | 0.8 | 0.526 | 0.53 | 0.439 | 0.506 | – | – | – | –
NCI-H727 | 0.646 | 0.648 | 0.527 | 0.561 | – | – | – | – | – | 0.982 | 0.809 | 0.772 | 0.98 | 0.547 | 0.615 | 0.671 | 0.711
NCI-H1299 | 1.06 | 1 | 1.02 | 1.01 | – | – | – | – | – | – | – | – | – | – | – | – | –
NCI-H1563 | 0.98 | 0.935 | 0.922 | 1.02 | 0.623 | 0.812 | 0.741 | 0.706 | 0.657 | – | – | – | – | – | – | – | –
NCI-H1648 | – | – | – | – | 0.796 | 0.655 | 0.569 | 0.961 | 0.751 | 0.415 | 0.577 | 0.452 | 0.551 | 0.604 | 0.898 | 0.73 | 0.66
NCI-H1650 | – | – | – | – | 0.347 | 0.308 | 0.348 | 0.42 | 0.287 | 0.447 | 0.441 | 0.344 | 0.371 | – | – | – | –
NCI-H1703 | 0.364 | 0.414 | 0.356 | 0.344 | – | – | – | – | – | – | – | – | – | 0.148 | 0.128 | 0.143 | 0.124
NCI-H2009 | 1.1 | 1.13 | 1.13 | 1.15 | 1.08 | 1.06 | 1.16 | 1.11 | 1.22 | 0.377 | 0.339 | 0.316 | 0.354 | – | – | – | –
NCI-H2023 | 0.576 | 0.592 | 0.654 | 0.673 | 0.208 | 0.219 | 0.293 | 0.248 | 0.396 | 0.216 | 0.217 | 0.182 | 0.182 | – | – | – | –
NCI-H2228 | 0.611 | 0.672 | 0.593 | 0.753 | 0.33 | 0.345 | 0.328 | 0.397 | 0.445 | – | – | – | – | – | – | – | –
NCI-H2342 | – | – | – | – | 0.455 | 0.806 | 0.618 | 0.723 | 0.715 | 0.791 | 0.705 | 0.704 | 0.733 | 0.56 | 0.383 | 0.395 | 0.666
SK-LU-1 | 0.901 | 1 | 0.919 | 0.854 | – | 0.975 | 1.08 | 1 | 1.09 | 0.651 | 0.627 | 0.293 | 0.654 | – | – | – | –
SW 900 | – | – | – | – | 0.456 | 0.48 | 0.478 | 0.482 | 0.49 | – | 0.393 | 0.478 | 0.378 | – | 0.744 | 0.637 | 0.678
SW 1573 | 0.646 | 0.82 | 0.571 | 0.771 | – | 0.917 | 0.968 | 0.88 | 1.25 | 0.532 | 0.551 | 0.432 | 0.564 | – | – | – | –
UMC-11 | 0.982 | 0.992 | 1.05 | 1.09 | 0.87 | 0.732 | 0.832 | 0.824 | 0.821 | 0.668 | 0.681 | 0.265 | 0.68 | – | – | – | –
